In US10780072B2, “Methods for inhibiting conversion of choline to trimethylamine (TMA)” (The Procter & Gamble Company, priority 2015, dated 2020) one finds IC50 data, which are given here for 42 molecules.

This test relates to Proteus mirabilis 29906 (Pm) lysate. Put plainly: Inhibition of TMA formation from choline (d9-choline to d9-TMA) in Proteus mirabilis lysate, LC-MS/MS. The test is classed as biochemical. The conditions noted are these: Pm lysate 1.5 mg/mL protein, 50 μM d9-choline chloride, 37° C. for two hours; read-out: TMA Inhibition (IC50, mol/L).
As for `COc1ccc(C)cc1N=C=S` [Compound 1, 2-Methoxy-5-methylphenyl isothiocyanate], the IC50 turned out to be 745 µM.

As for `CC(C)(C)N=C=S` [Compound 2, tert-Butyl isothiocyanate], the IC50 amounted to 5480 µM.

As to `Cc1cccc(N=C=S)c1` [Compound 3, m-Tolyl isothiocyanate], the IC50 amounted to 248 µM.

`CSc1ccc(N=C=S)cc1` [Compound 4, 4-(Methylthio) phenyl isothiocyanate]: the IC50 stood at 73.4 µM.

Take `S=C=NCc1ccccc1` [Compound 5, Benzyl isothiocyanate]: the IC50 worked out at 3.03 µM.

`CCCCCN=C=S` [Compound 6, 1-pentyl isothiocyanate]: the IC50 came out at 41.4 µM.

Take `CCN(CC)CCCN=C=S` [Compound 7, 3-(Diethyl-amino) propyl isothiocyanate]: the IC50 stood at 1.56 µM.

On to `S=C=NCC1CCCCC1` [Compound 8, Cyclohexyl- methyl isothiocyanate], for which the IC50 was 210 µM.

On to `S=C=NCCc1ccc(Cl)cc1` [Compound 9, 2-(4-Chloro-phenethyl) isothiocyanate], for which the IC50 came out at 30 µM.

For `CCC(C)N=C=S` (stereo not drawn) [Compound 10, sec-butyl isothiocyanate], the IC50 came out at 129 µM.

Take `CC(C)CN=C=S` [Compound 12, Isobutyl isothiocyanate]: the IC50 is 74.5 µM.

With `CCCCN=C=S` [Compound 13, Butyl isothiocyanate], the IC50 was found to be 50.4 µM.

As for `CC(C)N=C=S` [Compound 15, Isopropyl isothiocyanat], the IC50 is 98.2 µM.

For the molecule `CC(C)CCN=C=S` [Compound 16, 1-isothio-cyanato-3-methyl-butane], the IC50 was found to be 66.1 µM.

On to `S=C=Nc1ccccc1` [Compound 18, Phenyl isothiocyanate], for which the IC50 amounted to 120 µM.

In the case of `S=C=Nc1cccc2ccccc12` [Compound 19, 1-Naphthyl isothiocyanate], the IC50 was 2080 µM.

`S=C=Nc1ccc(Br)cc1` [Compound 20, 4-Bromo-phenyl isothiocyanate]: the IC50 amounted to 88.8 µM.

`O=C(N=C=S)c1ccccc1` [Compound 21, Benzoyl isothiocyanate]: the IC50 was found to be 196 µM.

On to `CC(C)(C)OC(=O)NCCCCN=C=S` [Compound 22, N-Boc-4-isothio-cyanatobutyl-amine], for which the IC50 came to 65.2 µM.

In the case of `CC(C)(C)OC(=O)Nc1ccc(N=C=S)cc1` [Compound 23, N-Boc-4-isothio-cyanatoaniline], the IC50 came out at 2530 µM.

In the case of `S=C=NCCCN1CCOCC1` [Compound 24, 3-(4-Morpholino) propyl isothiocyanate], the IC50 amounted to 15.7 µM.

On to `S=C=NCCN1CCOCC1` [Compound 25, 2-(4-Morpholino) ethyl isothiocyanate], for which the IC50 worked out at 13.4 µM.

In the case of `C[C@H](N=C=S)c1ccccc1` [Compound 26, (S)-(+)-alpha- Methylbenzyl isothiocyanate], the IC50 was found to be 20.9 µM.

In the case of `S=C=Nc1ccc(Cl)cc1` [Compound 27, 4-Chloro-phenyl isothiocyanate], the IC50 was determined as 108 µM.

Regarding `S=C=NC1CC2CCC1C2` (stereo not drawn) [Compound 29, exo-2-Norbornyl-isothiocyanate], the IC50 worked out at 48.2 µM.

Consider `S=C=NC1CCCCC1` [Compound 30, Cyclohexyl isothiocyanate], for which the IC50 was determined as 56.1 µM.

As for `CCc1ccc(N=C=S)cc1` [Compound 31, 4-Ethylphenyl isothiocyanate], the IC50 worked out at 383 µM.

In the case of `COc1ccccc1N=C=S` [Compound 32, 2-Methoxy-phenyl isothiocyanate], the IC50 came to 188 µM.

`COc1ccc(OC)c(N=C=S)c1` [Compound 33, 2,5-Di-methoxy-phenyl isothiocyanate]: the IC50 was determined as 152 µM.

For `COc1cccc(N=C=S)c1` [Compound 34, 3-Methoxy-phenyl isothiocyanate], the IC50 was found to be 88.3 µM.

As to `S=C=NCCN1CCCCC1` [Compound 35, 2-Piperidino-ethyl isothiocyanate], the IC50 came to 14.3 µM.

Consider `CCOC(=O)CN=C=S` [Compound 36, Ethyl isothio- cyanato- acetate], for which the IC50 stood at 3.98 µM.

Consider `CCCCCC12CCC(C(=O)Oc3ccc(N=C=S)cc3)(CC1)CC2` [Compound 37, 4-Isothio-cyanato-phenyl 4-pentyl-bicyclo [2.2.2] octane-1-carboxylate], for which the IC50 came out at 48900 µM.

In the case of `S=C=NC(c1ccccc1)c1ccccc1` [Compound 38, Benzhydryl isothiocyanate], the IC50 is 1560 µM.

Turning to `CC(=O)O[C@H]1[C@H](OC(C)=O)[C@@H](N=C=S)OC[C@H]1OC(C)=O` [Compound 39, 2,3,4-Tri-O-acetyl-α-D-arabino-pyranosyl isothiocyanate], the IC50 came out at 220 µM.

For the molecule `CCN(CC)CCN=C=S` [Compound 40, Ethanamine, N,N-diethyl-2-isothio-cyanato], the IC50 worked out at 8.81 µM.

With `CN(C)CCCN=C=S` [Compound 41, 3-isothio-cyanato-N,N-dimethyl-1-Propanamine], the IC50 was 11.5 µM.

For `CN(C)CCN=C=S` [Compound 42, 2-Isothio-cyanato-N,N-dimethyl-ethanamine], the IC50 came to 7.67 µM.

With `CCC(C)CN=C=S` (stereo not drawn) [Compound 44, Butane, 1-isothio-cyanato-2-methyl-], the IC50 amounted to 105 µM.

`C[N+](C)(C)CCN=C=S` [Compound 45, 2-Isothio-cyanato-N,N,N-trimethyl-ethana-minium iodide]: the IC50 is 1.28 µM.

For the molecule Ethyl isothiocyanate [Compound 11], the IC50 was determined as 28.6 µM.

Take Methyl isothiocyanate [Compound 14]: the IC50 is 20 µM.
